In patent publication US20250213735A1, “NEUROPEPTIDE Y1 RECEPTOR (NPY1R) TARGETED THERAPEUTICS AND USES THEREOF” (Radionetics Oncology, Inc., priority 2023, published 2025):

Molecular target: hNPY1R (Homo sapiens (Human), UniProt P25929)
Experiment: NPY1R binding assay (SK-N-MC membrane, [125I]-Peptide YY competition);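 note: bound radioligand separated by filtration over GF/C filter plates and counted, Ki obtained by non-linear regression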
Conditions: crude SK-N-MC membranes endogenously expressing NPY1R; [125I]-Peptide YY (human) 0.05 nM; 120 min at room temperature; read-out: hNPY1R binding Ki
Procedure: Crude membrane fractions are prepared from SK-N-MC cells endogenously expressing the NPY1R receptor. The cells are grown to 85-100% confluence on standard tissue culture dishes in Eagle's Minimum Essential Medium supplemented with 10% dialyzed FBS. To prepare membranes, cells are scraped and collected in 1× Dulbecco's phosphate buffered saline and then pelleted at 1000 RPM's. The cell pellet is reconstituted in membrane preparation buffer (20 mM HEPES, 6 mM MgCl2 and 1 mM EGTA, protease inhibitor tablets, pH 7.4) and placed in a cell disruption vessel at 1000 PSI for 30 minutes on ice. The pressurized contents are then released and spun down at 1000 RPMs and the supernatant is collected and further centrifuged at 15,000 RPMs to pellet the membranes. The membrane pellet is resuspended in membrane preparation buffer, snap frozen and stored at −80° C. for later use.
Assay contents are then filtered through unifilter GF/C microplates and washed with 9×400 μl of cold wash buffer (25 mM HEPES, 5 mM MgCl2, 1 mM CaCl2), 500 mM NaCl, 0.1% Tween-20, pH 7.4). Assay plates are read using a Top Count NXT and Ki values for compounds are determined using a GraphPad Prism 6 non-linear regression analysis.

hNPY1R, sequence (P25929 whole entry): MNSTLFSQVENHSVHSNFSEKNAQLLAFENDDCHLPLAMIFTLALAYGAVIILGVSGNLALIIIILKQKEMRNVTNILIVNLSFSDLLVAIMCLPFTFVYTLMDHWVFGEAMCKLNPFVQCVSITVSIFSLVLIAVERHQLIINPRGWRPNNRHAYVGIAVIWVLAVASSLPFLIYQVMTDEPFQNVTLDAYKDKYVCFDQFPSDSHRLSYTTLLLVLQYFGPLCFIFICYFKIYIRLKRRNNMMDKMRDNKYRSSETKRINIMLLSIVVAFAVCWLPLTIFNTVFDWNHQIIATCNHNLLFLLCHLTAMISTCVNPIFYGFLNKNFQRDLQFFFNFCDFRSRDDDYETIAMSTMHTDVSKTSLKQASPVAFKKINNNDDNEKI

Row | Ki [nM] | Compound
1 | 10 to 100 | N=C(N)NCCC[C@@H](NC(=O)C(c1ccccc1)N1Cc2ccccc2C1)C(=O)NCc1ccc(O)cc1 (stereo partly drawn) [compound 68, (2R)-5-guanidino-N-(4-hydroxybenzyl)-2-(2-(isoindolin-2-yl)-2-phenylacetamido)pentanamide]
2 | < 10 | CCC(=O)NCCNC(=O)/N=C(/N)NCCC[C@@H](NC(=O)[C@H](c1ccc(OCCCNC(=O)[C@@H](CC(N)=O)NC(=O)[C@@H](CO)NC(=O)CCNC(=O)CN2CCN(CC(=O)O)CCN(CC(=O)O)CCN(CC(=O)O)CC2)cc1)N1Cc2ccccc2C1)C(=O)NCc1c(F)cc(O)cc1F [compound 51, 2,2′,2″-(10-((8R,11R)-11-(2-amino-2-oxoethyl)-16-(4-((1S,4R,Z)-9-amino-4-((2,6-difluoro-4-hydroxybenzyl)carbamoyl)-1-(isoindolin-2-yl)-2,11,16-trioxo-3,8,10,12,15-pentaazaoctadec-9-en-1-yl)phenoxy)-8-(hydroxymethyl)-2,6,9,12-tetraoxo-3,7,10,13-tetraazahexadecyl)-1,4,7,10-tetraazacyclododecane-1,4,7-triyl)triacetic acid]
3 | < 10 | CCC(=O)NCCNC(=O)/N=C(/N)NCCC[C@@H](NC(=O)[C@H](c1ccc(CCCOCCOCCNC(=O)CN2CCN(CC(=O)O)CCN(CC(=O)O)CCN(CC(=O)O)CC2)cc1)N1Cc2ccccc2C1)C(=O)NCc1c(F)cc(O)cc1F (single isomer, unassigned) [8A]
4 | 100 to 1000 | CC1(C)C2CN([C@H](C(=O)N[C@H](CCCNC(=N)N)C(=O)NCc3ccc(O)cc3)c3ccccc3)CC21 (stereo partly drawn) [88A, (2R)-2-((2S)-2-(6,6-dimethyl-3-azabicyclo[3.1.0]hexan-3-yl)-2-phenylacetamido)-5-guanidino-N-(4-hydroxybenzyl)pentanamide]
5 | 100 to 1000 | N=C(N)NCCC[C@@H](NC(=O)C(c1ccccc1)N1CCC2(CCCCC2)CC1)C(=O)NCc1ccc(O)cc1 (stereo partly drawn) [compound 87, (2R)-5-guanidino-N-(4-hydroxybenzyl)-2-(2-phenyl-2-(3-azaspiro[5.5]undecan-3-yl)acetamido)pentanamide]
6 | < 10 | CCC(=O)NCCNC(=O)/N=C(/N)NCCC[C@@H](NC(=O)C(c1ccccc1)N1Cc2ccccc2C1)C(=O)NCc1ccc(O)cc1 (stereo partly drawn) [compound 60, (2R)—N-(4-hydroxybenzyl)-2-(2-(isoindolin-2-yl)-2-phenylacetamido)-5-((Z)-2-((2-propionamidoethyl)carbamoyl)guanidino)pentanamide]
7 | 10 to 100 | CC(C)(C)C1CCN(C(C(=O)N[C@H](CCCNC(=N)N)C(=O)NCc2ccc(O)cc2)c2ccccc2)CC1 (stereo partly drawn) [compound 80, (2R)-2-(2-(4-(tert-butyl)piperidin-1-yl)-2-phenylacetamido)-5-guanidino-N-(4-hydroxybenzyl)pentanamide]
8 | 100 to 1000 | CC1(C)CCN(C(C(=O)N[C@H](CCCNC(=N)N)C(=O)NCc2ccc(O)cc2)c2ccccc2)CC1 (stereo partly drawn) [compound 74, (2R)-2-(2-(4,4-dimethylpiperidin-1-yl)-2-phenylacetamido)-5-guanidino-N-(4-hydroxybenzyl)pentanamide]
9 | > 1000 | N=C(N)NCCC[C@@H](NC(=O)C(c1ccccc1)N1CCN(c2ccccc2)CC1)C(=O)NCc1ccc(O)cc1 (stereo partly drawn) [compound 76, (2R)-5-guanidino-N-(4-hydroxybenzyl)-2-(2-phenyl-2-(4-phenylpiperazin-1-yl)acetamido)pentanamide]
10 | 10 to 100 | N=C(N)NCCC[C@@H](NC(=O)C(c1ccccc1)N1CCC2(CC1)CC2)C(=O)NCc1ccc(O)cc1 (stereo partly drawn) [compound 85, (2R)-5-guanidino-N-(4-hydroxybenzyl)-2-(2-phenyl-2-(6-azaspiro[2.5]octan-6-yl)acetamido)pentanamide]
11 | 10 to 100 | N=C(N)NCCC[C@@H](NC(=O)C(c1ccccc1)N1CCC2(CCC2)CC1)C(=O)NCc1ccc(O)cc1 (stereo partly drawn) [compound 89, (2R)-5-guanidino-N-(4-hydroxybenzyl)-2-(2-phenyl-2-(7-azaspiro[3.5]nonan-7-yl)acetamido)pentanamide]

Row | Compound | Ki [nM]
12 | CCC(=O)NCCNC(=O)/N=C(/N)NCCC[C@@H](NC(=O)[C@H](c1ccc(OCCCNC(=O)CCCCCNC(=O)CN2CCN(CC(=O)O)CCN(CC(=O)O)CCN(CC(=O)O)CC2)cc1)N1Cc2ccccc2C1)C(=O)NCc1c(F)cc(O)cc1F [compound 36, 2,2′,2″-(10-(2-((6-((3-(4-((1S,4R,Z)-9-amino-4-((2,6-difluoro-4-hydroxybenzyl)carbamoyl)-1-(isoindolin-2-yl)-2,11,16-trioxo-3,8,10,12,15-pentaazaoctadec-9-en-1-yl)phenoxy)propyl)amino)-6-oxohexyl)amino)-2-oxoethyl)-1,4,7,10-tetraazacyclododecane-1,4,7-triyl)triacetic acid] | < 10
13 | CCC(=O)NCCNC(=O)/N=C(/N)NCCC[C@@H](NC(=O)[C@H](c1ccc(OCCCNC(=O)CCN(C)CCNC(=O)CN2CCN(CC(=O)O)CCN(CC(=O)O)CCN(CC(=O)O)CC2)cc1)N1Cc2ccccc2C1)C(=O)NCc1c(F)cc(O)cc1F [compound 55, 2,2′,2″-(10-(2-((2-((3-((3-(4-((1S,4R,Z)-9-amino-4-((2,6-difluoro-4-hydroxybenzyl)carbamoyl)-1-(isoindolin-2-yl)-2,11,16-trioxo-3,8,10,12,15-pentaazaoctadec-9-en-1-yl)phenoxy)propyl)amino)-3-oxopropyl)(methyl)amino)ethyl)amino)-2-oxoethyl)-1,4,7,10-tetraazacyclododecane-1,4,7-triyl)triacetic acid] | < 10
14 | CCC(=O)NCCNC(=O)/N=C(/N)NCCC[C@@H](NC(=O)[C@H](c1cccc(NCCCNC(=O)CCOCCOCCOCCOCCOCCOCCNC(=O)CN2CCN(CC(=O)O)CCN(CC(=O)O)CCN(CC(=O)O)CC2)c1)N1Cc2ccccc2C1)C(=O)NCc1ccc(O)cc1 [compound 23, 2,2′,2″-(10-(28-((3-((1S,4R,Z)-9-amino-4-((4-hydroxybenzyl)carbamoyl)-1-(isoindolin-2-yl)-2,11,16-trioxo-3,8,10,12,15-pentaazaoctadec-9-en-1-yl)phenyl)amino)-2,24-dioxo-6,9,12,15,18,21-hexaoxa-3,25-diazaoctacosyl)-1,4,7,10-tetraazacyclododecane-1,4,7-triyl)triacetic acid] | < 10
15 | CCC(=O)NCCNC(=O)/N=C(/N)NCCC[C@@H](NC(=O)[C@@H](c1cccc(NC(=O)CCCNc2c(NCCCCCCNC(=O)CN3CCN(CC(=O)O)CCN(CC(=O)O)CCN(CC(=O)O)CC3)c(=O)c2=O)c1)N1Cc2ccccc2C1)C(=O)NCc1c(F)cc(O)cc1F (single isomer, unassigned) [31B] | < 10
16 | CCC(=O)NCCNC(=O)/N=C(/N)NCCC[C@@H](NC(=O)[C@H](c1cccc(N(C)CCCNC(=O)CCCCCNC(=O)CN2CCN(CC(=O)O)CCN(CC(=O)O)CCN(CC(=O)O)CC2)c1)N1Cc2ccccc2C1)C(=O)NCc1ccc(O)cc1 [compound 11, 2,2′,2″-(10-(2-((6-((3-((3-((1S,4R,Z)-9-amino-4-((4-hydroxybenzyl)carbamoyl)-1-(isoindolin-2-yl)-2,11,16-trioxo-3,8,10,12,15-pentaazaoctadec-9-en-1-yl)phenyl)(methyl)amino)propyl)amino)-6-oxohexyl)amino)-2-oxoethyl)-1,4,7,10-tetraazacyclododecane-1,4,7-triyl)triacetic acid] | < 10
17 | CCC(=O)NCCNC(=O)/N=C(/N)NCCC[C@@H](NC(=O)[C@H](c1ccc(OCCCNc2c(NCCCCCCNC(=O)CN3CCN(CC(=O)O)CCN(CC(=O)O)CCN(CC(=O)O)CC3)c(=O)c2=O)cc1)N1Cc2ccccc2C1)C(=O)NCc1c(F)cc(O)cc1F [compound 37, 2,2′,2″-(10-(2-((6-((2-((3-(4-((1S,4R,Z)-9-amino-4-((2,6-difluoro-4-hydroxybenzyl)carbamoyl)-1-(isoindolin-2-yl)-2,11,16-trioxo-3,8,10,12,15-pentaazaoctadec-9-en-1-yl)phenoxy)propyl)amino)-3,4-dioxocyclobut-1-en-1-yl)amino)hexyl)amino)-2-oxoethyl)-1,4,7,10-tetraazacyclododecane-1,4,7-triyl)triacetic acid] | < 10
18 | CCC(=O)NCCNC(=O)/N=C(/N)NCCC[C@@H](NC(=O)[C@H](c1cccc(NCCCNC(=O)C[C@H](O)C[C@H](O)CCNC(=O)CN2CCN(CC(=O)O)CCN(CC(=O)O)CCN(CC(=O)O)CC2)c1)N1Cc2ccccc2C1)C(=O)NCc1ccc(O)cc1 [compound 29, 2,2′,2″-(10-(2-(((3R,5R)-7-((3-((3-((1S,4R,Z)-9-amino-4-((4-hydroxybenzyl)carbamoyl)-1-(isoindolin-2-yl)-2,11,16-trioxo-3,8,10,12,15-pentaazaoctadec-9-en-1-yl)phenyl)amino)propyl)amino)-3,5-dihydroxy-7-oxoheptyl)amino)-2-oxoethyl)-1,4,7,10-tetraazacyclododecane-1,4,7-triyl)triacetic acid] | < 10
19 | CCC(=O)NCCNC(=O)/N=C(/N)NCCC[C@@H](NC(=O)[C@@H](c1ccccc1)N1Cc2ccccc2C1)C(=O)NCc1c(F)cc(O)cc1F [61B, (R)—N-(2,6-difluoro-4-hydroxybenzyl)-2-((R)-2-(isoindolin-2-yl)-2-phenylacetamido)-5-((Z)-2-((2-propionamidoethyl)carbamoyl)guanidino)pentanamide] | < 10
20 | CCNC(=O)/N=C(/N)NCCC[C@@H](NC(=O)[C@H](c1ccccc1)N1Cc2ccc(NCCCN)cc2C1)C(=O)NCc1c(F)cc(O)cc1F [65A, (R)-2-((S)-2-(5-((3-aminopropyl)amino)isoindolin-2-yl)-2-phenylacetamido)-N-(2,6-difluoro-4-hydroxybenzyl)-5-((Z)-2-(ethylcarbamoyl)guanidino)pentanamide] | < 10
21 | CCNC(=O)/N=C(/N)NCCC[C@@H](NC(=O)C(c1ccccc1)N1CCC(C(C)(C)C)CC1)C(=O)NCc1ccc(O)cc1 (stereo partly drawn) [compound 91, (2R)-2-(2-(4-(tert-butyl)piperidin-1-yl)-2-phenylacetamido)-5-((Z)-2-(ethylcarbamoyl)guanidino)-N-(4-hydroxybenzyl)pentanamide] | < 10
